Type in all cases: cell-based
Assay [1] has as its system healthy human neonatal fibroblasts. Put plainly: Spheroid culture of healthy human neonatal fibroblasts in coated 6-well flat-bottom vessel, microscope observation. The note with it: PS 6-well flat-bottom vessel coated with 0.125% solution; day 2 to day 20; uncoated control adhered and grew 2D. On the procedure: (§1) 2 mL of an aqueous solution of the polypeptide represented by formula (1) (0.125%) (cell culture supplement) was added to a commercial polystyrene-made 6-well flat-bottom culture vessel (CellBIND, Corning) and allowed to stand at 4° C. for 24 hours.
Thereafter, the excess cell culture supplement was removed, and the remaining solution was dried in a dryer at 37° C. for 96 hours to complete coating treatment with the cell culture supplement. Healthy human neonatal fibroblasts (ATCC PCS-201-010, primary dermal fibroblasts, neonatal, referred to as “fibroblasts” below) were maintained and cultured in a serum-free medium (Promo Cell; fibroblast basal medium, basic-FGF 5 ng/mb and insulin 2.5 μg/mL). The fibroblasts floating in 2 mL of the medium were seeded in the culture vessel coated with the cell culture supplement at 2×10^6 cells/well and cultured at 37° C. under 5% CO2 conditions. For a control, fibroblasts were seeded in a culture vessel of the same type with no coating applied with the cell culture supplement (2×10^6 cells/well). Observation was performed with a microscope on day 2 and day 20 after the start of culture to capture images of spheroid formation (FIG. 5).

Assay [2] has the same test system. Put plainly: Real-time PCR of undifferentiated stem cell marker genes in neonatal fibroblast spheroids (6-well flat-bottom). The note with it: day 20 of 3D spheroid culture, coated 6-well flat-bottom; control without supplement = 1.0; ΔΔCt, β-actin. How it is done: as §1
Thereafter, the excess cell culture supplement was removed, and the remaining solution was dried in a dryer at 37° C. for 96 hours to complete coating treatment with the cell culture supplement. Healthy human neonatal fibroblasts (ATCC PCS-201-010, primary dermal fibroblasts, neonatal, referred to as “fibroblasts” below) were maintained and cultured in a serum-free medium (Promo Cell; fibroblast basal medium, basic-FGF 5 ng/mb and insulin 2.5 μg/mL). The fibroblasts floating in 2 mL of the medium were seeded in the culture vessel coated with the cell culture supplement at 2×10^6 cells/well and cultured at 37° C. under 5% CO2 conditions. For a control, fibroblasts were seeded in a culture vessel of the same type with no coating applied with the cell culture supplement (2×10^6 cells/well). Observation was performed with a microscope on day 2 and day 20 after the start of culture to capture images of spheroid formation (FIG. 5). […]
Specifically, a NucleoZOL reagent (Macherey-Nagel) was added to each type of cells, and total-RNA was extracted according to the protocol recommended by the reagent manufacturer and used as template RNA for detecting undifferentiated stem cell markers. For real-time PCR analysis, PCR probes from QuantiFast Probe RT-PCR Kits (QTAGEN; No. 204454) and TagMan Gene Expression Assay Probe (Thermo Fisher Scientific) were used. […] In the gene expression analysis, relative quantification was performed according to the ΔΔCt method (Delta Delta Ct method). The results of analysis according to the ΔΔCt method show the amount of a gene expressed by control cells under the conditions of “no cell culture supplement, flat-bottom 2D growth, day 0” as “1.0” in relative terms, and the increase rate of the expression level on day 20 of spheroid proliferation was determined by comparison (FIG. 6).
On the technique in general: Real-time PCR tracks product formation cycle by cycle.

Assay [3] relates to healthy human adult skin fibroblasts. The experiment in a line: Spheroid culture of healthy human adult skin fibroblasts, microscope observation. The note with it: 96-well round-bottom vessel coated with 0.125% solution; uncoated control grew 2D. On the procedure:
An aqueous solution of the polypeptide represented by formula (1) (0.125%) (cell culture supplement) was added to a commercial polystyrene-made 96-well round-bottom culture vessel (Nuncion Delta 96U Bottom, Thermo Fisher Scientific) and allowed to stand at 4° C. for 24 hours. The cell culture supplement solution was then removed and the coated cell culture supplement was dried in a dryer at 37° C. for 96 hours to complete the cell culture supplement coating process. Healthy human adult skin fibroblasts (Lonza, normal human dermal fibroblast-adult, referred to as “adult skin fibroblasts” below) were maintained and cultured in a serum-free medium (Fujifilm Wako Pure Chemical Corporation; DMEM/F12 medium, human serum albumin recombinant 0.5 mg/mL, human transferrin recombinant 10 μg/mL, basic-FGF 5 ng/ml, and insulin 2.5 μg/mL). Adult skin fibroblasts floating in 100 μL of the medium were seeded in the 96-well round-bottom culture vessel coated with the cell culture supplement at 2×10^4 cells/well and cultured at 37° C. under 5% CO2 conditions.

Assay [4] deals with healthy human neonatal fibroblasts. Put plainly: Spheroid culture of healthy human neonatal fibroblasts in coated 96-well round-bottom vessel, microscope observation. The note with it: PS 96-well round-bottom vessel coated with 0.125% solution; 4×10^4 cells/well. On the procedure: To observe the spheroid formation and stem cell induction in healthy human neonatal fibroblasts over time, culture was performed by using a 96-well round-bottom culture vessel. An aqueous solution of the polypeptide represented by formula (1) (0.125%) (cell culture supplement) was added to a commercial polystyrene-made 96-well round-bottom culture vessel (Nunclon Delta 96U Bottom, Thermo Fisher Scientific) at 100 μL/well and allowed to stand at 4° C. for 24 hours. Thereafter, the excess cell culture supplement was removed, and the remaining solution was dried in a dryer at 37° C. for 96 hours to complete coating treatment with the cell culture supplement. Fibroblasts were maintained and cultured in a serum-free medium (Promo Cell; fibroblast basal medium, basic-FGF 5 ng/ml and insulin 2.5 μg/mL). The fibroblasts floating in the medium were seeded in the culture vessel coated with the cell culture supplement at 4×10^4 cells/well/100 μL and cultured at 37° C. under 5% CO2 conditions.

For the substance “(Pro-Hyp-Gly)n [cell culture supplement]”, the spheroid formation entry in assay [1] is “formed spheroids”. Further, in assay [2], the “NANOG gene expression level (increase vs control)” value is 9.1 fold, the “OCT4 gene expression level (increase vs control)” value worked out at 5.1 fold and the “SOX2 gene expression level (increase vs control)” value worked out at 34.4 fold. In addition, the spheroid formation entry in assay [3] is “formed spheroids”. Also, in assay [4], the spheroid formation result is given as “formed a single spheroid”.

The record behind these values is patent US20240294881A1, “CELL CULTURE SUPPLEMENT FOR PRODUCING STEM CELLS, AND METHOD FOR PRODUCING STEM CELLS” (OPTICELL, INC, priority 2021, published 2024).
